{"source": "patent US11332476B2", "about": "“Fms-like tyrosine kinase inhibitors” (3SM BIOTRON INC., priority 2018, dated 2022)", "data": [{"biological_target": "T1, FLT3 (Homo sapiens, UniProt P36888)", "T1 sequence (P36888 27-993)": "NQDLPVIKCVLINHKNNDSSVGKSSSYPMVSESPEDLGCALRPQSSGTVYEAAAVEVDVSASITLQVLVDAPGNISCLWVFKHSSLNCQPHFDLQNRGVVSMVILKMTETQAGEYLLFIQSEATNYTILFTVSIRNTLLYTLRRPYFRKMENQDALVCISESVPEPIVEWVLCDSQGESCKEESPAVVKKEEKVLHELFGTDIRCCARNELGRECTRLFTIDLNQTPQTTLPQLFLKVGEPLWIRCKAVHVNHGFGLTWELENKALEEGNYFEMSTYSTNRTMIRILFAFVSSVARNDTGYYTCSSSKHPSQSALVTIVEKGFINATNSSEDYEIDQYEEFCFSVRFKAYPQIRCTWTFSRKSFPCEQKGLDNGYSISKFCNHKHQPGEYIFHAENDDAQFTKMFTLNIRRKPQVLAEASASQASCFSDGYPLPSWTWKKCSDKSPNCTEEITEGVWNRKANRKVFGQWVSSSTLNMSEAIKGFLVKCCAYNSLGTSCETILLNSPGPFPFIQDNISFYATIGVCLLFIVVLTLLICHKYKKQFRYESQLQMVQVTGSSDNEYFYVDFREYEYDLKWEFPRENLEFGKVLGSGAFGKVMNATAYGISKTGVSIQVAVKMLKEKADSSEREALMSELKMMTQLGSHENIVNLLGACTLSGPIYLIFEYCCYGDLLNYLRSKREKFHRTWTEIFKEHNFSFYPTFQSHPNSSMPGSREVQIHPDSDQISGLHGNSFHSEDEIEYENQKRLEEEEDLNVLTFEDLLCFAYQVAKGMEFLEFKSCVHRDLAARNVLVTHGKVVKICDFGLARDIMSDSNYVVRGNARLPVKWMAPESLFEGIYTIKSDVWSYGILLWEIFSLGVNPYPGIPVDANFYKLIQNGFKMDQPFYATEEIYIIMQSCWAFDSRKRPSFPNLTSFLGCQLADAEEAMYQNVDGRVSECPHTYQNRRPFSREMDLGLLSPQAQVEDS", "experiment": "Inhibition of FLT3, 33P-ATP kinase assay with filter-binding detection", "format": "biochemical", "details": "33P-ATP 10 uM, 2 hours at room temperature, filter-binding method", "method": "Prepare indicated substrate in freshly prepared Base Reaction Buffer (20 mM Hepes (pH 7.5), 10 mM MgCl2, 1 mM EGTA, 0.02% Brij35, 0.02 mg/ml BSA, 0.1 mM Na3VO4, 2 mM DTT, 1% DMSO). Deliver any required cofactors to the substrate solution above. Deliver indicated kinase into the substrate solution and gently mix. The testing compounds in DMSO was added into the kinase reaction mixture by Acoustic technology (Echo550; nanoliter range) and incubated for 20 minutes at room temperature. Deliver 33P-ATP (specific activity […]) into the reaction mixture to initiate the reaction. Incubate kinase reaction for 2 hours at room temperature. Reactions are spotted onto P81 ion exchange paper. Detect kinase activity by filter-binding method.\nInhibition of FLT3 with 4-Quinolone Derivatives", "units": {"IC50": "nM"}, "values": [{"smiles": "COc1cccc2c(=O)c3c(sc12)c(N1CCNCC1)nc1ccccc13", "note": "[compound 7247, 8-methoxy-6-(piperazin-1-yl)-12H-thiochromeno[2,3-c]quinolin-12-one]", "IC50": "51 to 200"}, {"smiles": "CNCCNc1nc2ccccc2c2c(=O)c3cc(F)ccc3sc12", "note": "[compound 7752, 10-fluoro-6-(2-(methylamino)ethylamino)-12H-thiochromeno[2,3-c]quinolin-12-one]", "IC50": "< 51"}, {"smiles": "O=c1c2cc(F)ccc2sc2c(N3CCCC3)nc3ccccc3c12", "note": "[compound 7747, 10-fluoro-6-(pyrrolidin-1-yl)-12H-thiochromeno[2,3-c]quinolin-12-one]", "IC50": "> 1000"}, {"smiles": "NCCCNc1nc2ccccc2c2c(=O)c3cc(C(F)(F)F)ccc3sc12", "note": "[compound 7201, 6-(3-aminopropylamino)-10-trifluoromethyl-12H-thiochromeno[2,3-c]quinolin-12-one]", "IC50": "> 1000"}, {"smiles": "O=c1c2cc(Cl)ccc2sc2c(NCCCNCCO)nc3ccccc3c12", "note": "[compound 7701, 10-chloro-6-(3-(2-hydroxyethylamino)propylamino)-12H-thiochromeno[2,3-c]quinolin-12-one]", "IC50": "> 1000"}, {"smiles": "COc1ccc2sc3c(N)nc4ccccc4c3c(=O)c2c1", "note": "[compound 7709, 6-Amino-10-methoxy-12H-thiochromeno[2,3-c]quinolin-12-one]", "IC50": "> 1000"}, {"smiles": "O=c1c2cc(F)ccc2sc2c(-n3cccc3)nc3ccccc3c12", "note": "[compound 7750, 10-fluoro-6-(1H-pyrrol-1-yl)-12H-thiochromeno[2,3-c]quinolin-12-one]", "IC50": "> 1000"}, {"smiles": "COc1ccc2sc3c(NCCCN)nc4ccccc4c3c(=O)c2c1", "note": "[compound 7711, 6-(3-aminopropylamino)-10-methoxy-12H-thiochromeno[2,3-c]quinolin-12-one]", "IC50": "51 to 200"}, {"smiles": "Cc1ccc2sc3c(NCCCNCCO)nc4ccccc4c3c(=O)c2c1", "note": "[compound 7215, 6-(3-(2-hydroxyethylamino)propylamino)-10-methyl-12H-thiochromeno[2,3-c]quinolin-12-one]", "IC50": "201 to 500"}, {"smiles": "O=c1c2cc(F)ccc2sc2c(Nc3ccncc3)nc3ccccc3c12", "note": "[compound 7763, 10-fluoro-6-(pyridin-4-ylamino)-12H-thiochromeno[2,3-c]quinolin-12-one]", "IC50": "> 1000"}, {"smiles": "CCCNc1nc2ccccc2c2c(=O)c3cc(OC)ccc3sc12", "note": "[compound 7710, 10-methoxy-6-(propylamino)-12H-thiochromeno[2,3-c]quinolin-12-one]", "IC50": "> 1000"}, {"smiles": "Nc1nc2ccccc2c2c(=O)c3cc(F)ccc3sc12", "note": "[compound 7705, 6-amino-10-fluoro-12H-thiochromeno[2,3-c]quinolin-12-one]", "IC50": "> 1000"}, {"smiles": "CN(C)CCCNc1nc2ccccc2c2c(=O)c3cc(Cl)ccc3sc12", "note": "[compound 7722, 10-chloro-6-(3-(dimethylamino)propylamino)-12H-thiochromeno[2,3-c]quinolin-12-one]", "IC50": "> 1000"}, {"smiles": "O=c1c2cccc(Cl)c2sc2c(NCCCNCCO)nc3ccccc3c12", "note": "[compound 7716, 8-chloro-6-(3-(2-hydroxyethylamino)propylamino)-12H-thiochromeno[2,3-c]quinolin-12-one]", "IC50": "501 to 1000"}, {"smiles": "O=c1c2cc(F)ccc2sc2c(NCCCNCCO)nc3ccc(Cl)cc3c12", "note": "[compound 7406, 2-chloro-10-fluoro-6-(3-(2-hydroxyethylamino)propylamino)-12H-thiochromeno[2,3-c]quinolin-12-one]", "IC50": "> 1000"}, {"smiles": "Cc1ccc2sc3c(NCc4ccccc4)nc4ccccc4c3c(=O)c2c1", "note": "[compound 7233, 6-(benzylamino)-10-methyl-12H-thiochromeno[2,3-c]quinolin-12-one]", "IC50": "> 1000"}, {"smiles": "COCCCNc1nc2ccccc2c2c(=O)c3cc(F)ccc3sc12", "note": "[compound 7730, 10-fluoro-6-(3-methoxypropylamino)-12H-thiochromeno[2,3-c]quinolin-12-one]", "IC50": "> 1000"}, {"smiles": "O=c1c2cc(F)ccc2sc2c(NCCCNCCO)nc3ccccc3c12", "note": "[compound 7708, 10-fluoro-6-(3-(2-hydroxyethylamino)propylamino)-12H-thiochromeno[2,3-c]quinolin-12-one]", "IC50": "201 to 500"}]}]}
